For this experiment, the system named is mutant Huntington (HTT) protein. The experiment in a line: HTT Mutant HTRF iPSC assay (mHTT protein lowering). Format: cell-based. To be noted: human iPSC derived from a HTT patient with a poly-Q49 mutation. Background: TR-FRET usually uses a lanthanide donor and a delayed reading to cut background.
For orientation: IC50 means the concentration that inhibits the measured activity by half. Low readings indicate greater potency, high ones weaker potency. For `Cc1cn2nc(-c3cc(F)c4nc(NC(=O)CC5CCNCC5)cn4c3)cc(C)c2n1` [Compound 284, N-(6-(2,8-dimethylimidazo[1,2-b]pyridazin-6-yl)-8-fluoroimidazo[1,2-a]pyridin-2-yl)-2-(piperidin-4-yl)acetamide], the IC50 is 100 to 1000 nM.
Under `Cc1cn2nc(-c3cc(F)c4nc(NC(=O)C5(C)CN(C6CC6)C5)cn4c3)cc(C)c2n1` [Compound 282, 1-cyclopropyl-N-(6-(2,8-dimethylimidazo[1,2-b]pyridazin-6-yl)-8-fluoroimidazo[1,2-a]pyridin-2-yl)-3-methylazetidine-3-carboxamide] stands < 100 nM; under `Cc1cn2nc(-c3cc(F)c4nc(C(=O)NC5CCNC6(CC6)C5)cn4c3)cc(C)c2n1` (single isomer, unassigned) [Compound 348], 100 to 1000 nM; under `COc1cc(-c2cc(C(F)F)c3nc(C)cn3n2)cn2cc([C@H]3[C@@H]4CN(C)C[C@@H]43)nc12` [Compound 540, 8-(difluoromethyl)-6-[8-methoxy-2-[3-methyl-3-azabicyclo[3.1.0]hexan-6-yl]imidazo[1,2-a]pyridin-6-yl]-2-methyl-imidazo[1,2-b]pyridazine], < 100 nM.
Next, `COc1cc(-c2cc(F)c3nc(C4CCN(C)CC4)cn3c2)nn2nc(C)nc12` [Compound 225, 6-(8-fluoro-2-(1-methylpiperidin-4-yl)imidazo[1,2-a]pyridin-6-yl)-8-methoxy-2-methyl-[1,2,4]triazolo[1,5-b]pyridazine]: < 100 nM.
Under `Cc1cc(-c2cc(F)c3nn(C4CCNCC4)cc3c2)nc2cn(C)nc12` [Compound 353, 5-(7-fluoro-2-(piperidin-4-yl)-2H-indazol-5-yl)-2,7-dimethyl-2H-pyrazolo[4,3-b]pyridine] stands 100 to 1000 nM; under `Cc1cn2nc(-c3cc(F)c4nc(N5CCC(N6CCCC6)CC5)oc4c3)cc(C)c2n1` [Compound 477, 6-(2,8-dimethylimidazo[1,2-b]pyridazin-6-yl)-4-fluoro-2-(4-(pyrrolidin-1-yl)piperidin-1-yl)benzo[d]oxazole], 100 to 1000 nM; under `Cc1cn2nc(-c3cc(F)c4nn(C5CCN(C)CC5)nc4c3)cc(C(F)F)c2n1` [Compound 375, 6-[8-(difluoromethyl)-2-methyl-imidazo[1,2-b]pyridazin-6-yl]-4-fluoro-2-(1-methyl-4-piperidyl)benzotriazole], 100 to 1000 nM.
Consider `Cc1cn2nc(-c3cc(F)c4nc(NC(=O)C5CCN(C)CC5)cn4c3)cc(C)c2n1` [Compound 269, N-(6-(2,8-dimethylimidazo[1,2-b]pyridazin-6-yl)-8-fluoroimidazo[1,2-a]pyridin-2-yl)-1-methylpiperidine-4-carboxamide], for which the IC50 was < 100 nM.
Next, `COc1cc(-c2cc(F)c3nc(C)cn3c2)cc2nn(C3CCNCC3)nc12` [Compound 548, 6-(8-fluoro-2-methyl-imidazo[1,2-a]pyridin-6-yl)-4-methoxy-2-(4-piperidyl)benzotriazole]: 1000 to 9000 nM; `Cc1nc2c(C)cc(-c3cc(F)c4nc(N5CCC6(CCN(C)CC6)C5)oc4c3)nn2n1` [Compound 498, 6-(2,8-dimethyl-[1,2,4]triazolo[1,5-b]pyridazin-6-yl)-4-fluoro-2-(8-methyl-2,8-diazaspiro[4.5]decan-2-yl)benzo[d]oxazole]: 100 to 1000 nM; `CN[C@H]1CC[C@H](c2cn3cc(-c4cc(F)c5nn(C)cc5c4)cc(F)c3n2)CC1` [Compound 170, (1r,4r)-4-(8-fluoro-6-(7-fluoro-2-methyl-2H-indazol-5-yl)imidazo[1,2-a]pyridin-2-yl)-N-methylcyclohexan-1-amine]: < 100 nM.
In the case of `Cc1cc(-c2cc(F)c3nn(C4CCN(C)CC4)cc3c2)cc2cn(C)nc12` [Compound 356, 7-fluoro-2′,7′-dimethyl-2-(1-methylpiperidin-4-yl)-2H,2′H-5,5′-biindazole], the concentration for half-maximal inhibition (IC50) was in the range of 100 to 1000 nM.
Next, `Cc1cn2nc(-c3cc(F)c4nc(C56CC(C7CNC7)(C5)C6)cn4c3)cc(C)c2n1` [Compound 184]: 100 to 1000 nM.
